Laboratory results as given in US10780090B2, “Heteroaryl compounds useful as inhibitors of SUMO activating enzyme” (Millennium Pharmaceuticals, Inc., priority 2014, dated 2020).

Molecular target: recombinant human SAE enzyme (Homo sapiens (Human), UniProt Q9UBT2)
Assay: SAE HTRF enzyme assay
Assay type: biochemical
Settings: for inhibition at 0.111 µM: read-out: Percent Inhibition
Method in brief: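 0.11 nM SAE incubated with 0.5 μM ATP, 0.01 μM Ubc9-GST and 0.125 μM Sumo-Flag in HEPES pH 7.5, MgCl2, GSH, BSA, ±inhibitor, 105 min at 24° C. EDTA stop; Eu-cryptate anti-Flag/XL-APC anti-GST HTRF read after 2 h. Values given as single-concentration % inhibition or IC50.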

[1] = SAE inhibition at compound concentration 0.111 μM
[2] = SAE inhibition, class symbols, legend in nM

Chain of recombinant human SAE enzyme (Q9UBT2 whole entry): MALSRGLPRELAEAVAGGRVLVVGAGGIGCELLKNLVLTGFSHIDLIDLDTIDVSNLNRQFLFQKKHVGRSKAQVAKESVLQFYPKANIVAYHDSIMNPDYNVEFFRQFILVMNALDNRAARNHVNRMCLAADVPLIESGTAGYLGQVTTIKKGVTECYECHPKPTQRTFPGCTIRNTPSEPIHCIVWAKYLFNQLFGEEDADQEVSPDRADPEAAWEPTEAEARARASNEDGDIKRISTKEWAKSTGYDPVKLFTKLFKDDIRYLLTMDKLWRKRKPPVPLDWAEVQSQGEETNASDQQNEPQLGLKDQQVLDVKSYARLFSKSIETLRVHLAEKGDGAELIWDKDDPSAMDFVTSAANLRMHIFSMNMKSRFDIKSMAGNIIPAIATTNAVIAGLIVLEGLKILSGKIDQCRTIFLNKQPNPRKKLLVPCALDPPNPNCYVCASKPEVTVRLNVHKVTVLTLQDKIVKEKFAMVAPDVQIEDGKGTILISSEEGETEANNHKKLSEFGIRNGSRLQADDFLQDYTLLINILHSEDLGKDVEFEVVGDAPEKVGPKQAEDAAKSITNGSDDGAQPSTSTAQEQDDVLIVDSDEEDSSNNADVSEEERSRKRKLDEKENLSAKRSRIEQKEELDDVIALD
Chain of recombinant human SAE enzyme (Q9UBE0 whole entry partner): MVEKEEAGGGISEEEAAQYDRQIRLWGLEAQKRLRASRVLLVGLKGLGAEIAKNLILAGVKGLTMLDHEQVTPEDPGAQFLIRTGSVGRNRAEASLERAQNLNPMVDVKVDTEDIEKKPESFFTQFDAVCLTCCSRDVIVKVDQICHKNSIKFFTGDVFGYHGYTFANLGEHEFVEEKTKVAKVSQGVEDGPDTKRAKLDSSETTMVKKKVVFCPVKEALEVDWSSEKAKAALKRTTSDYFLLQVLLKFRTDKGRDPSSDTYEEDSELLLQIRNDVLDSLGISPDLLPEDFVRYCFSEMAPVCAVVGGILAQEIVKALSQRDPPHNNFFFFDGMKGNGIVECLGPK

| SMILES | Percent Inhibition [1] [%] | IC50 [2] [nM] | Percent Inhibition (Concentration 0.111 μM) | IC50 (class symbols A/B/C) [nM] | inhibition at 0.111 µM (Concentration 0.111 μM) [%] |
| --- | --- | --- | --- | --- | --- |
| Cc1sc(C(=O)c2cncnc2N[C@@H]2C[C@H](COS(N)(=O)=O)[C@@H](O)C2)cc1[C@@H]1OCCc2cccnc21 (single isomer, unassigned) [I-285a, [(1R,2S,4R)-4-{[5-({4-[(8S)-5,8-dihydro-6H-pyrano[3,4-b]pyridin-8-yl]-5-methyl-2-thienyl}carbonyl)pyrimidin-4-yl]amino}-2-hydroxycyclopentyl]methyl sulfamate or [(1R,2S,4R)-4-{[5-({4-[(8R)-5,8-dihydro-6H-pyrano[3,4-b]pyridin-8-yl]-5-methyl-2-thienyl}carbonyl)pyrimidin-4-yl]amino}-2-hydroxycyclopentyl]methyl sulfamate] | 101 | < 10 | – | – | – |
| Cc1sc(C(=O)c2cncnc2N[C@@H]2C[C@H](COS(N)(=O)=O)[C@@H](O)C2)cc1[C@@H]1OCCc2ccc(C(F)(F)F)cc21 (single isomer, unassigned) [I-258b, [(1R,2S,4R)-2-hydroxy-4-{[5-({5-methyl-4-[(1R)-7-(trifluoromethyl)-3,4-dihydro-1H-isochromen-1-yl]-2-thienyl}carbonyl)pyrimidin-4-yl]amino}cyclopentyl]methyl sulfamate or [(1R,2S,4R)-2-hydroxy-4-{[5-({5-methyl-4-[(1S)-7-(trifluoromethyl)-3,4-dihydro-1H-isochromen-1-yl]-2-thienyl}carbonyl)pyrimidin-4-yl]amino}cyclopentyl]methyl sulfamate] | – | – | 72 | 10 to 100 | – |
| NS(=O)(=O)OC[C@H]1C[C@@H](Nc2ncncc2C(=O)c2cc([C@H](O)c3cccc(Cl)c3)cs2)C[C@@H]1O (single isomer, unassigned) [I-4b, [(1R,2S,4R)-4-{[5-({4-[(R)-(3-chlorophenyl)(hydroxy)methyl]-2-thienyl}carbonyl)pyrimidin-4-yl]amino}-2-hydroxycyclopentyl]methyl sulfamate or [(1R,2S,4R)-4-{[5-({4-[(S)-(3-chlorophenyl)(hydroxy)methyl]-2-thienyl}carbonyl)pyrimidin-4-yl]amino}-2-hydroxycyclopentyl]methyl sulfamate] | – | – | 100 | < 10 | – |
| Cc1sc(C(=O)c2cncnc2N[C@@H]2C[C@H](COS(N)(=O)=O)[C@@H](O)[C@@H]2F)cc1[C@@H]1OCCc2ccccc21 (single isomer, unassigned) [I-271a, [(1R,2R,3R,4R)-4-{([5-({4-[(1R)-3,4-dihydro-1H-isochromen-1-yl]-5-methyl-2-thienyl)carbonyl)pyrimidin-4-yl]amino}-3-fluoro-2-hydroxycyclopentyl]methyl sulfamate or [(1R,2R,3R,4R)-4-{([5-({4-[(1S)-3,4-dihydro-1H-isochromen-l-yl]-5-methyl-2-thienyl}carbonyl)pyrimidin-4-yl]amino}-3-fluoro-2-hydroxycyclopentyl]methyl sulfamate] | – | – | 99 | < 10 | – |
| CCc1ccc2c(c1)[C@H](c1cc(C(=O)c3cncnc3N[C@@H]3C[C@H](COS(N)(=O)=O)[C@@H](O)C3)sc1C)OCC2 (mixture of isomers) [I-346, [(1R,2S,4R)-4-{[5-({4-[(1R)-7-ethyl-3,4-dihydro-1H-isochromen-1-yl]-5-methyl-2-thienyl}carbonyl)pyrimidin-4-yl]amino}-2-hydroxycyclopentyl]methyl sulfamate and [(1R,2S,4R)-4-{[5-({4-[(1S)-7-ethyl-3,4-dihydro-1H-isochromen-1-yl]-5-methyl-2-thienyl}carbonyl)pyrimidin-4-yl]amino}-2-hydroxycyclopentyl]methyl sulfamate] | 99 | < 10 | – | – | – |
| Cc1cnn(Cc2csc(C(=O)c3cncnc3N[C@@H]3C[C@H](COS(N)(=O)=O)[C@@H](O)C3)c2)c1 [I-74, [(1R,2S,4R)-2-hydroxy-4-{[5-({4-[(4-methyl-1H-pyrazol-1-yl)methyl]-2-thienyl}carbonyl)pyrimidin-4-yl]amino}cyclopentyl]methyl sulfamate] | – | – | – | < 10 | 98 |
| NS(=O)(=O)OC[C@H]1C[C@@H](Nc2ncncc2C(=O)c2cc(C3NCCc4ccc(Cl)cc43)c(Cl)s2)C[C@@H]1O (single isomer, unassigned) [I-255b, [(1R,2S,4R)-4-{[5-({5-chloro-4-[(1R)-7-chloro-1,2,3,4-tetrahydroisoquinolin-1-yl]-2-thienyl}carbonyl)pyrimidin-4-yl]amino}-2-hydroxycyclopentyl]methyl sulfamate or [(1R,2S,4R)-4-{[5-({5-chloro-4-[(1S)-7-chloro-1,2,3,4-tetrahydroisoquinolin-1-yl-2-thienyl}carbonyl)pyrimidin-4-yl]amino}-2-hydroxycyclopentyl]methyl sulfamate] | – | – | 100 | < 10 | – |
| Cc1sc(C(=O)c2cncnc2N[C@@H]2C[C@H](COS(N)(=O)=O)[C@@H](O)[C@@H]2F)cc1[C@H]1OCCc2ccc(Cl)cc21 (mixture of isomers) [I-264, [(1R,2R,3R,4R)-4-{[5-({4-[(1S)-7-chloro-3,4-dihydro-1H-isochromen-1-yl]-5-methyl-2-thienyl}carbonyl)pyrimidin-4-yl]amino}-3-fluoro-2-hydroxycyclopentyl]methyl sulfamate and [(1R,2R,3R,4R)-4-{[5-({4-[(1R)-7-chloro-3,4-dihydro-1H-isochromen-1-yl]-5-methyl-2-thienyl}carbonyl)pyrimidin-4-yl]amino}-3-fluoro-2-hydroxycyclopentyl]methyl sulfamate] | – | – | 100 | < 10 | – |
| NS(=O)(=O)OC[C@H]1C[C@@H](Nc2ncncc2C(=O)c2cc(Cn3ccc4cccnc43)cs2)C[C@@H]1O [I-92, {(1R,2S,4R)-2-hydroxy-4-[(5-{[4-(1H-pyrrolo[2,3-b]pyridin-1-ylmethyl)-2-thienyl]carbonyl}pyrimidin-4-yl)amino]cyclopentyl}methyl sulfamate] | – | – | – | < 10 | 98 |
| NS(=O)(=O)OC[C@H]1C[C@@H](Nc2ncncc2C(=O)c2cc([C@@H]3OCCc4c(Cl)cccc43)cs2)C[C@@H]1O (single isomer, unassigned) [I-301b, [(1R,2S,4R)-4-{[5-({4-[(1R)-5-chloro-3,4-dihydro-1H-isochromen-1-yl]-2-thienyl}carbonyl)pyrimidin-4-yl]amino}-2-hydroxycyclopentyl]methyl sulfamate or [(1R,2S,4R)-4-{[5-({4-[(1S)-5-chloro-3,4-dihydro-1H-isochromen-1-yl]-2-thienyl}carbonyl)pyrimidin-4-yl]amino}-2-hydroxycyclopentyl]methyl sulfamate] | 100 | < 10 | – | – | – |
| CC(O)(c1cccc(Cl)c1)c1csc(C(=O)c2cncnc2N[C@@H]2C[C@H](COS(N)(=O)=O)[C@@H](O)C2)c1 (single isomer, unassigned) [I-5a, [(1R,2S,4R)-4-{[5-({4-[(1R)-1-(3-chlorophenyl)-1-hydroxyethyl]-2-thienyl}carbonyl)pyrimidin-4-yl]amino}-2-hydroxycyclopentyl]methyl sulfamate or [(1R,2S,4R)-4-{[5-({4-[(1S)-1-(3-chlorophenyl)-1-hydroxyethyl]-2-thienyl}carbonyl)pyrimidin-4-yl]amino}-2-hydroxycyclopentyl]methyl sulfamate] | – | – | 86 | 10 to 100 | – |
